# According to patent publication US4959368A, “Therapeutic agent for neurological diseases” (Mitsui Petrochemical Industries Ltd., priority 1986, dated 1990):
# Like-named read-outs stand apart in the source and are kept apart here.
# Experiments:
# [1] = tested on: mouse neuroblastoma cell line neuro-2a; assay: Activity on neuro-2a, cells with outgrown neurites; assay type: cell-based
# How it was run: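 Mouse neuro-2a cells in DMEM with FCS exposed to compounds for 24 h (up to 6 concentrations, triplicate runs), glutaraldehyde-fixed and methylene blue-stained. Proportion of cells bearing a neurite at least twice the cell's long diameter counted microscopically over ≥200 cells.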
# mice = assay: Acute toxicity, mouse; assay type: in vivo; conditions: 24 hours
# Procedure: (§1) The acute toxicity of the compounds of the invention was examined by the following method.
# (§2) Male ddy-strain 5-week old mice and male Wistar-strain 8 week old rats, five per group, were used as experimental animals. Each of the compounds was dissolved in saline and administered perorally, and the toxicity of the compound was assessed 24 hours after the administration.
# Acute toxicity, mouse = assay type: in vivo; conditions: in vivo, po, read-out: Presumed LD50
# Procedure: as §1, §2
# [2] = tested on: human neuroblastoma cell line GOTO; assay: Activity on neuroblastoma cell line GOTO (cell number, number and length of neurites); assay type: cell-based; conditions: for Number of cells: control 3.17
# Procedure: The biological activities in vitro of the compounds of formula (I) on cells of the nervous system were tested. The cells tested were human neuroblastoma cell line GOTO [see Sekiguchi, M., Oota, T., Sakakibara, K., Inui, N. & Fujii, G., Japan. J. Exp. Med., 49, 67-83 (1979)], and neuroblastoma cell line NB-1 [see Miyake, S., Shimo, Y., Kitamura, T., Nojyo, Y., Nakamura, T., Imkashuku, S. and Abe, T., The Autonomic Nervous System, 10, 115-120 (1973)], and mouse neuroblastoma cell line neuro-2a (Dainippon Pharmaceutical Co., Ltd.) which have been established as the cells of the nervous system. The above neuve cells were grown in an incubator at 37° C. in the presence of 5% carbon dioxide gas exponentially, and then cultivated for a certain period of time together with the compounds of formula (I).
# The effect of the compounds of this invention on neuroblastoma cells was examined by the following method.
# A culture medium [composed of 45% of RPMI 1640 medium, 45% modified Eagle's medium (MEM) and 10% of fetal calf serum (FCS) and containing penicillin G sodium (100 units/ml) and streptomycin sulfate (100 microgram/ml)] containing neurobalstoma cell line GOTO in the logarithmic growth period was poured in an amount of 2 ml each into polystyrene dishes (35 mm; made by Corning Co.) so that the cell concentration was 2 to 6×10^4 cells per dish, and the cells were cultured for 1 to 2 days in a carbon dioxide gas incubator containing 5% of carbon dioxide gas in air at 37° C. Then, the culture fluid was removed, and 2 ml of a fresh serum-free culture fluid (consisting of 50% of RPMI medium and 50% of MEM medium and containing penicillin G sodium and streptomycin sulfate in the same amounts as above) was added. At the same time, a presterilized PBS solution (phosphate buffered saline) of each of the test compounds in various concentrations was added to each of the dishes. After culturing for 24 hours, the number of living cells was counted. Furthermore, the culture was photographed, and from the photos, the number and length of neurites per cell were measured. The numer of living cells was counted for 3 to 6 dishes by resistance to staining with erythrosine dye. The number and length of the neurites were measured with regard to 6 photos (more than 200 cells per photo).
smiles,measurement,setting,value
CCOC(=O)c1cnc(N2CCNCC2)nc1C(=O)OCC [Compound 144],Cells having neurites with a length at least twice the long diameter of cell/total number of cells,"[1]; Table 3 Run No. 2, 0.1 mM, control 1.9 ± 0.9",9.9 ± 1.5%
same,Cells having neurites with a length at least twice the long diameter of cell/total number of cells,"[1]; Table 3 Run No. 2, 0.3 mM, control 1.9 ± 0.9",19.4 ± 3.2%
same,Number of dead animals/number of test animals,"mice; Table 6, 300 mg/kg p.o.",0/5
same,Number of dead animals/number of test animals,"mice; Table 6, 500 mg/kg p.o.",0/5
same,Number of dead animals/number of test animals,"mice; Table 6, 1000 mg/kg p.o.",3/5
same,LD50 at 24 h,"Acute toxicity, mouse; Table 6, p.o.",550 to 1000 mg/kg
O=c1[nH]ccc2nc(N3CCNCC3)ncc12 [Compound 701],Cells having neurites with a length at least twice the long diameter of cell/total number of cells,"[1]; Table 3 Run No. 7, 0.03 mM, control 2.5 ± 0.7",6.8 ± 0.8%
same,Cells having neurites with a length at least twice the long diameter of cell/total number of cells,"[1]; Table 3 Run No. 7, 0.5 mM, control 2.5 ± 0.7",42.5 ± 1.8%
same,Cells having neurites with a length at least twice the long diameter of cell/total number of cells,"[1]; Table 3 Run No. 7, 1 mM, control 2.5 ± 0.7",57.2 ± 1.2%
same,Cells having neurites with a length at least twice the long diameter of cell/total number of cells,"[1]; Table 3 second Run No. 5, 0.1 mM, control 4.5 ± 0.3",16.2 ± 1.2%
same,Number of dead animals/number of test animals,"mice; Table 6, 300 mg/kg p.o.",0/5
same,Number of dead animals/number of test animals,"mice; Table 6, 500 mg/kg p.o.",3/5
same,Number of dead animals/number of test animals,"mice; Table 6, 1000 mg/kg p.o.",5/5
same,LD50 at 24 h,"Acute toxicity, mouse; Table 6, p.o.",300 to 550 mg/kg
c1cnc(N2CCNCC2)nc1 [Compound 124],Cells having neurites with a length at least twice the long diameter of cell/total number of cells,"[1]; Table 3 Run No. 1, 3.6 μM, control 2.2 ± 0.8",4.6 ± 0.5%
same,Cells having neurites with a length at least twice the long diameter of cell/total number of cells,"[1]; Table 3 Run No. 1, 36 μM, control 2.2 ± 0.8",3.8 ± 1.2%
same,Number of dead animals/number of test animals,"mice; Table 6, 300 mg/kg p.o.",0/5
same,Number of dead animals/number of test animals,"mice; Table 6, 500 mg/kg p.o.",0/5
same,Number of dead animals/number of test animals,"mice; Table 6, 1000 mg/kg p.o.",3/5
same,LD50 at 24 h,"Acute toxicity, mouse; Table 6, p.o.",550 to 1000 mg/kg
same,Number of cells,"[2]; Table 1 Run No. 3, 0.0 μg/ml (so in the source)",4.01 × 10^4 /dish
same,Number of neurites/cell (mean ± S.D.),"[2]; Table 1 Run No. 3, 1 μg/ml, control 1.94 ± 0.69, all *P <0.01",2.23 ± 0.82 neurites/cell
same,Number of cells,"[2]; Table 1 Run No. 3, 1 μg/ml",4.10 × 10^4 /dish
same,Length of neurites (mean ± S.D.),"[2]; Table 1 Run No. 3, 1 μg/ml, control 45.13 ± 22.71, all *P <0.01",66.56 ± 22.16 μm/cell
same,Number of neurites/cell (mean ± S.D.),"[2]; Table 1 Run No. 4, 1 μg/ml, control 1.98 ± 0.74",2.13 ± 0.72 neurites/cell
same,Number of cells (mean ± S.E.),"[2]; Table 1 Run No. 4, 1 μg/ml, control 5.48 ± 1.38",7.22 ± 1.98 × 10^4 /dish
same,Length of neurites (mean ± S.D.),"[2]; Table 1 Run No. 4, 1 μg/ml, control 54.15 ± 33.64",72.19 ± 49.23 μm/cell
same,Number of neurites/cell (mean ± S.D.),"[2]; Table 1 Run No. 4, 10 μg/ml, control 1.98 ± 0.74",2.08 ± 0.69 neurites/cell
same,Number of cells (mean ± S.E.),"[2]; Table 1 Run No. 4, 10 μg/ml, control 5.48 ± 1.38",5.45 ± 2.61 × 10^4 /dish
same,Length of neurites (mean ± S.D.),"[2]; Table 1 Run No. 4, 10 μg/ml, control 54.15 ± 33.64",71.31 ± 45.67 μm/cell
same,Number of neurites/cell (mean ± S.D.),"[2]; Table 1 Run No. 5, 1 μg/ml, control 1.96 ± 0.64",1.96 ± 0.54 neurites/cell
same,Number of cells (mean ± S.E.),"[2]; Table 1 Run No. 5, 1 μg/ml, control 5.30 ± 0.23",4.89 ± 0.59 × 10^4 /dish
same,Length of neurites (mean ± S.D.),"[2]; Table 1 Run No. 5, 1 μg/ml, control 46.41 ± 33.28",52.59 ± 32.50 μm/cell
CCCCOc1ccnc(N2CCNCC2)n1 [Compound 128],Cells having neurites with a length at least twice the long diameter of cell/total number of cells,"[1]; Table 3 Run No. 1, 0.028 μM, control 2.2 ± 0.8",4.4 ± 0.7%
same,Cells having neurites with a length at least twice the long diameter of cell/total number of cells,"[1]; Table 3 Run No. 1, 0.29 μM, control 2.2 ± 0.8",3.4 ± 0.6%
same,Cells having neurites with a length at least twice the long diameter of cell/total number of cells,"[1]; Table 3 Run No. 1, 28 μM, control 2.2 ± 0.8",5.2 ± 0.9%
same,Number of dead animals/number of test animals,"mice; Table 6, 300 mg/kg p.o.",0/5
same,Number of dead animals/number of test animals,"mice; Table 6, 500 mg/kg p.o.",3/5
same,Number of dead animals/number of test animals,"mice; Table 6, 1000 mg/kg p.o.",4/5
same,LD50 at 24 h,"Acute toxicity, mouse; Table 6, p.o.",300 to 550 mg/kg
Cc1nc(N2CCNCC2)nc2c1CC(=O)N2C [Compound 468],Cells having neurites with a length at least twice the long diameter of cell/total number of cells,"[1]; Table 3 Run No. 10, 0.3 mM, control 1.7 ± 0.7",5.8 ± 0.8%
same,Cells having neurites with a length at least twice the long diameter of cell/total number of cells,"[1]; Table 3 Run No. 10, 1 mM, control 1.7 ± 0.7",15.7 ± 0.5%
same,Number of dead animals/number of test animals,"mice; Table 7, 1000 mg/kg p.o.",1/5
same,LD50 at 24 h,"Acute toxicity, mouse; Table 7, p.o.",> 1000 mg/kg
